Reference: US11986482B2, “Method of promoting antitumor or anti-cancer immunity” (City University of Hong Kong, priority 2021, dated 2024)
“Also recorded” adds a separate entry of the source.

Legend:
[1] = system: PD-L1; assay: Western blot of PD-L1 in total cell lysates and exosomes of HeLa cells; type: cell-based; conditions: HeLa cells, 48 h, Bafilomycin A1 10 nM, Torin 1 100 nM; for exosomal PD-L1 level: ionomycin 1 μM, 6J1 1 μM
Protocol: PD-L1 has been previously shown to be secreted outside the cell through exosomes. HeLa cells are plated on coverslips in 24-well plates and stained with the anti-PD-L1 antibody on ice for 1 h. At the indicated times after being incubated at a warm medium at 37° C., cells are fixed and stained with antibodies against CD63 or Rab27a. […] Cells are treated with or without ionomycin (1 μM) for 48 h. The supernatant is collected and subjected to western blot analysis. […] Since the amphisome, which is formed by the fusion of the autophagosome with the MVB/late endosome, has been implicated in extracellular vesicles secretion, and PD-L1 is found to be associated with LC3B during PD-L1 trafficking (FIG. 2a), inventors examine whether the autophagosome formation is involved in exosomal PD-L1 secretion. Thus, inventors knock out the expression of Rab27A, LC3B or ATG4B in HeLa cells and collect their supernatant respectively for western blot analysis.
Furthermore, HeLa cells are treated with or without Bafilomycin A1 (10 nM), or Torin 1 (100 nM) for 48 h. The cell lysates and supernatant are collected for western blot analysis. […] In contrast, Torin1, an autophagy activator, has little effect on total and exosomal PD-L1 levels (FIG. 2g). […] On the other hand, blockage on the fusion between lysosomes and late endosomes or autophagosomes may induce PD-L1 secretion via exosomes.
It has previously been shown that interfering with endosomal trafficking promotes exosome secretion. Moreover, PD-L1 has been reported to be enriched in exosomes and secreted outside the cell. Thus, inventors speculate that 6J1 may induce the secretion of the PD-L1 trapped in the endosomal compartments via exosomes. To determine whether 6J1 may induce the secretion of PD-L1 via exosomes, HeLa cells are treated with or without 6J1 (1 μM) for 24 h. The supernatant is collected. Inventors purify the exosomes from the supernatant of HeLa cells by sequential centrifugation. The concentration of extracellular vesicle is determined using a Nanosight nanoparticle analyzer. And HeLa cells are treated with or without 6J1 (1 μM) for 48 h. The cell and supernatant are collected for Western Blot analysis. […] Moreover, the activity of Rab27a in HeLa cells treated with or without 6J1 (1 μM) is examined with a GST-SHD pulldown assay.
Moreover, ATG5- or LC3-knockout HeLa cells are treated with or without 6J1 (1 μM) for 24 h. The supernatant is collected, and the concentration of the extracellular vesicle is determined using a Nanosight nanoparticle analyzer. The exosomes are also collected and subjected to western blot analysis of the EVs marker and PD-L1 in FIG. 7a. The live cells are also labeled with an anti-PD-L1 antibody in FIG. 7b and subjected to flow cytometry analysis in FIG. 7c. […] In addition, inventors assess whether other autophagy-related genes, e.g., ATG4B, ATG7, Beclin1, and Vps34 are involved in 6J1-mediated exosomal PD-L1 secretion. ATG4B-, ATG7-, Beclin1-, or VPS34-knockout HeLa cells are treated with or without 6J1 (1 μM) for 24 h. The supernatant is collected, and the concentration of extracellular vesicle is determined using a Nanosight nanoparticle analyzer. The exosomes are also collected and subjected to western blot analysis of the EVs marker and PD-L1 in FIG. 7d. The live cells are also labeled with an anti-PD-L1 antibody and subjected to flow cytometry analysis in FIG. 7e.

[2] = system: 4T1 cells; assay: Extracellular vesicle concentration, Nanosight nanoparticle analyzer, 4T1 cells; type: cell-based, mouse; conditions: 4T1 cells, GW4869 10 μM with 6J1 1 μM
Protocol: (§1) The current PD-L1 and PD1 therapies apply PD-L1 or PD1 monoclonal antibodies to block the PD-L1/PD1 signaling, which results in cytotoxic T cells recognizing and killing the tumor cells. […] First, flow cytometry-based quantification of plasma membrane levels of PD-L1 in 4T1 cells treated with or without 6J1 (1 μM) for 24 h. 4T1 cells are treated with or without 6J1 (1 μM) for 24 h. The supernatant is collected, and the concentration of extracellular vesicle is determined using a Nanosight nanoparticle analyzer in FIG. 8b. The exosomes are also collected and subjected to western blot analysis of the EVs marker and PD-L1 in FIG. 8c.
To assess whether the in vivo antitumor growth effect of 6J1 is related to its effect on PD-L1 in 4T1 cells, inventors knock out PD-L1 via CRISPR/Cas9 in 4T1 cells (FIG. 10a). 4T1-NC or 4T1-PD-L1 knockout cells are treated with or without 6J1 (1 μM) for 24 h. The supernatant is collected, and the concentration of extracellular vesicle is determined using a Nanosight nanoparticle analyzer. The exosomes are also collected and subjected to western blot analysis of the EVs marker and PD-L1. […] Inventors then transplant control or PD-L1-knockout 4T1 cells into the fat pad of syngeneic female Balb/c mice. The mice are randomly divided (n=5 per group) and treated with either buffer or 6J1 (30 mg/kg, daily) via oral gavage.
Therefore, it is possible that the increased exosomal PD-L1 secretion induced by 6J1 may still suppress the tumor-infiltrating T cell cytotoxicity in vivo, even though 6J1 reduces the cell surface expression level of PD-L1 on the tumor cells. To evaluate the role of exosomal PD-L1 in the tumor microenvironment and tumor progression in mice, inventors knock out Rab27a in 4T1 cells to inhibit the secretion of exosomes. 4T1-shNC or 4T1-shRab27A cells are treated with or without 6J1 (1 μM). The supernatant is collected, and the concentration of extracellular vesicle is determined using a Nanosight nanoparticle analyzer. […] Inventors analyze the plasma membrane levels of PD-L1 in 4T1-shNC or 4T1-shRab27A cells treated with or without 6J1 (1 μM). […]

[3] = system: PD-L1; assay: Plasma membrane PD-L1 level in 4T1 cells (flow cytometry); type: cell-based, mouse; conditions: 4T1 cells, GW4869 10 μM with 6J1 1 μM
Protocol: as §1
Therefore, it is possible that the increased exosomal PD-L1 secretion induced by 6J1 may still suppress the tumor-infiltrating T cell cytotoxicity in vivo, even though 6J1 reduces the cell surface expression level of PD-L1 on the tumor cells. To evaluate the role of exosomal PD-L1 in the tumor microenvironment and tumor progression in mice, inventors knock out Rab27a in 4T1 cells to inhibit the secretion of exosomes. 4T1-shNC or 4T1-shRab27A cells are treated with or without 6J1 (1 μM). The supernatant is collected, and the concentration of extracellular vesicle is determined using a Nanosight nanoparticle analyzer. […] Inventors analyze the plasma membrane levels of PD-L1 in 4T1-shNC or 4T1-shRab27A cells treated with or without 6J1 (1 μM). […] Next, control or Rab27a-knockout 4T1 cells are orthotopically transplanted into syngeneic fat pads of female Balb/c. The mice are randomly divided (n=5 per group) and treated with either buffer or 6J1 (30 mg/kg, daily) via oral gavage. […] Inventors also perform the immunostaining of CD8 and Granzyme B in the tumor sections. […] Since enhanced antitumor immunity leads to increased apoptosis in tumors, inventors assess the levels of cleaved caspase3 (CCA3), one of the markers of apoptosis, in tumor sections as well.
Finally, inventors assess the combinatory effects of 6J1 with GW4869, an exosome secretion inhibitor, in the aforementioned orthotopic mammary carcinoma mouse models. […]

[4] = system: PD-L1; assay: PD-L1 internalization assay (surface anti-PD-L1 antibody labelling, Rab5 colocalization) in HeLa cells; type: cell-based; conditions: HeLa cells pretreated 3 h; Pitstop2 30 uM, Filipin III 5 mg/mL
Protocol: Without intending to be limited by theory, it is believed that the endosomal trafficking of PD-L1, a type I membrane protein, remains poorly studied thus far. In the fixed HeLa cells stained with anti-PD-L1 antibody, HeLa cells are plated on coverslips in 24-well plates and fixed after 24 h. Cells are then co-stained with antibodies against PD-L1 and Rab5, LAMP1, CD63, Rab27A, Rab11. […] Thus, inventors speculate that PD-L1 at the cell surface may be subjected to an active endosomal trafficking process. To monitor the PD-L1's endosomal trafficking process, inventors label the PD-L1 at the cell surface in the live cells with an anti-PD-L1 antibody on ice for 1 h. They then incubate the cells with the warm medium at 37° C. for the indicated times to initiate the internalization of the PD-L1 antibody complex, followed by the immunostaining of RAB5, EEA1, LAMP1, or RAB11. […] In addition, HeLa cells are pretreated with Fillilin III (5 mg/mL) or Pistop2 (30 uM) for 3 h, then stained with the anti-PD-L1 antibody on ice for 1 h. At the indicated times after being incubated with a warm medium at 37° C., the cells are fixed and stained with an anti-Rab5 antibody. […] Furthermore, Rab5-knockout HeLa cells are transfected with CD63-mcherry and stained with the anti-PD-L1 antibody on ice for 1 h. After being incubated for 1.5 h in a warm medium at 37° C., the cells are fixed and imaged.

| Structure (SMILES) | exosomal PD-L1 level [1] | internalization of PD-L1 [4] | total PD-L1 level in cells [1] | further results |
| --- | --- | --- | --- | --- |
| C[C@H](CCC(=O)O)C[C@H](C)C[C@H](C)C(=O)/C=C(\O)[C@H](C)C[C@H](C)C/C=C/[C@@H](C)[C@@H](O)[C@@H](C)[C@@H](O)C[C@@H]1CC[C@@](C)([C@H]2CC[C@@](C)([C@@H](C)O)O2)O1 [ionomycin] | markedly increases the exosomal PD-L1 level; also recorded: markedly increased exosomal PD-L1 level | – | – | – |
| O=C(C=Cc1ccc(C=CC(=O)Nc2ccc(C3=NCCN3)cc2)cc1)Nc1ccc(C2=NCCN2)cc1 [GW4869, reference compound] | – | – | – | effect of GW4869 on 6J1-induced exosome secretion [2]: inhibits exosome secretion of 4T1 cells induced by 6J1; effect of GW4869 on 6J1-mediated reduction of cell surface PD-L1 [3]: does not impair 6J1-mediated reduction of cell surface PD-L1 |
| CCCCC[C@@H](O)[C@H]1C(=O)O[C@H](C)[C@@H](O)/C=C/C=C/C=C/C=C/C=C(\C)[C@@H](O)C[C@H](O)C[C@H](O)C[C@H](O)C[C@H](O)C[C@H](O)C[C@@H]1O [Filipin III] | – | does not affect the internalization of PD-L1 | – | – |
| O=C1NC(=NS(=O)(=O)c2cccc3ccccc23)S/C1=C\c1ccc(Br)cc1 [Pitstop2] | – | blocks the internalization of PD-L1 | – | – |
| CO/C1=C\C(C)=C\[C@@H](C)[C@@H](O)[C@@H](C)C/C(C)=C/C=C/[C@H](OC)[C@@H]([C@@H](C)[C@@H](O)[C@H](C)[C@@]2(O)C[C@@H](O)[C@H](C)[C@@H](C(C)C)O2)OC1=O [bafilomycin A1] | markedly increases | – | markedly increases | – |
| CCC(=O)N1CCN(c2ccc(-n3c(=O)ccc4cnc5ccc(-c6cnc7ccccc7c6)cc5c43)cc2C(F)(F)F)CC1 [Torin1] | little effect | – | little effect | – |
